Assays:
[1] = tested on: nontumorigenic cell line HEK-293 (human embryonic kidney cells); test: MTT antiproliferative assay, HEK-293; format: cell-based; conditions: HEK293, 72 h after drug treatment, threshold 10 μM
Description: (§1) The cell proliferation inhibitory activity of frentizole and the synthesized analogs 2–10 against representative human cancer cell lines was assayed using the MTT method (Table 1). […] For those compounds inhibiting cell proliferation by more than 40% with respect to the untreated controls at the threshold concentration, the IC50 values were calculated by measuring the proliferation inhibition in a range of concentrations from 100 to 0.001 μM and adjusting the resulting curves to sigmoidal dose–response curves. The selected cell lines were HeLa (cervix epithelioid carcinoma cells), one of the most frequent kinds of cancer, with good sensitivity against antimitotic agents, and the glioblastoma cell lines U87MG and A172. To study the selectivity of the compounds toward cancer cells versus nontumor cells, the compounds were also evaluated against the nontumorigenic cell line HEK-293 (human embryonic kidney cells) and the murine macrophage cell line J774. Sulfonamide ABT-751, as a representative of the colchicine-site ligands, and the first-line drug for the treatment of glioblastoma multiforme temozolomide (TMZ) were used as reference compounds.
(§2) The cell lines were from ATTC (Manassas, VA, USA). HeLa (human cervix epithelioid carcinoma), U87 MG (human glioblastoma), A172 (human glioblastoma), and HEK-293 (human embryonic kidney) were grown in Dulbecco’s modified Eagle’s medium (DMEM, Gibco, Waltham, MA, USA), supplemented with 10% (v/v) heat-inactivated fetal bovine serum (HIFBS, Sigma-Aldrich, St. Louis, MO, USA), 2 mM L-glutamine, 100 μg/mL streptomycin, and 100 units/mL penicillin (Gibco, Waltham, MA, USA) at 37 °C in humidified 95% air and 5% CO2. The cells were periodically tested for Mycoplasma infection using MycoAlert kit (Lonza, Norwest, Australia), and only mycoplasma-free cells were employed in the experiments.
(§3) The effect of the compounds on the proliferation of human tumor cell lines was determined as previously described using the MTT reagent 3-[4,5-dimethylthiazol-2-yl]-2,5-diphenyltetrazolium bromide, MTT Thiazolyl Blue Tetrazolium Bromide, Sigma-Aldrich, St. Louis, MO, USA) dissolved in PBS at 5 mg/mL, according to the manufacturer’s instructions. The cells were incubated in 96-well plates (100 μL/well), in complete DMEM or RPMI 1640 medium (see above), at 37 °C and 5% CO2 atmosphere for 24 h to allow for cell attachment to the plate at the following concentrations: 30,000 cells/mL (U87MG, A172, J774, and HEK-293 cells) or 15,000 cells/mL (HeLa cells). Then, every compound was added (10 μL/well) to a final concentration of 10 μM. Untreated cells were used as negative controls. The antiproliferative activity of the compounds was measured 72 h after drug exposure using the MTT assay. The IC50 value (the drug concentration required to inhibit 50% of the cell growth in respect the untreated control) was determined for those compounds showing antiproliferative effects in the initial screening at 10 μM. For this purpose, the compounds were used at different concentrations ranging from 10^−10 to […]. Measurements were performed in triplicate and each experiment was repeated three times. The IC50 values were determined using Origin software (OriginLab, Washington, DC, USA).

HeLa cells = test: Cell cycle analysis (PI staining, flow cytometry); format: cell-based, human; conditions: 2 μM, 24-72 h
Description: To study the effects of the compounds on the cell cycle, cells were incubated for different times with the compounds and, thereafter, their DNA was stained using propidium iodide (PI) to allow for quantification by flow cytometry. […] The brominated ethyl BZTs (5b and 5f) were faster to show the subG0/G1 decrease, at 24 h, followed by an apparent stabilization of the G0/G1 population at 48 h, which abruptly fell at the 72 h time point.
HeLa cells (8 × 10^4 cells/mL) were seeded in 6-well plates (2 mL/well) and incubated in complete DMEM medium at 37 °C and 5% CO2 atmosphere for 24 h. Then, the medium was replaced with fresh complete DMEM in the presence or absence of the selected compounds (3ea, 5b, 5f, and frentizole 6e) at 2 μM. Untreated cells were used as negative controls. Cells were harvested 24, 48, or 72 h following treatment and fixed in ice-cold ethanol/PBS (7:3) overnight. The cells were then washed twice with PBS, suspended in PBS and incubated overnight in darkness with 0.2 mg/mL RNase A (Sigma-Aldrich, St. Louis, MO, USA), 50 μg/mL propidium iodide (Sigma-Aldrich, St. Louis, MO, USA), and Triton 10× at room temperature. A BD Accuri™ C6 Plus Flow Cytometer (BD Bioscience, Madrid, Spain) was used to analyze samples, and BD Accuri™ C6 Software (version 1.0.264.21) was used for data analysis.

[2] = tested on: murine macrophage cell line J774; test: MTT antiproliferative assay, J774; format: cell-based; conditions: Mus musculus, 72 h after drug treatment, threshold 10 μM, read-out: IC50 J-774
Description: as §1, §3

[3] = tested on: HeLa (cervix epithelioid carcinoma cells); test: MTT antiproliferative assay, HeLa; format: cell-based, human; conditions: for IC50: Homo sapiens, HeLa
Description: as §1, §2, §3

[4] = tested on: U87 MG (human glioblastoma); test: MTT antiproliferative assay, U-87 MG; format: cell-based; conditions: 72 h after drug treatment, threshold 10 μM
Description: as §1, §2, §3

[5] = tested on: A172 (human glioblastoma); test: MTT antiproliferative assay, A-172; format: cell-based; conditions: 72 h after drug treatment, threshold 10 μM
Description: as §1, §2, §3

[6] = tested on: microtubule network of HeLa cells; test: Immunofluorescence confocal microscopy of cellular microtubules; format: cell-based, human; conditions: 2 μM, 24 h
Description: Therefore, we studied the effect of the compounds after 24 h of treatment on the microtubule network of HeLa cells by immunofluorescence confocal microscopy (Figure 5) through α-tubulin and nuclei labeling. […] These morphological effects are typical of tubulin inhibitors. Again, the effects are more pronounced for 5b than for 3ea, frentizole, and 5f.
HeLa cells (8 × 10^4 cells/mL) were seeded on 0.01% poly-L-lysine precoated square glass coverslips (22 mm^2), deposited on 6-well plates (1 coverslip/well), and incubated in complete DMEM medium at 37 °C and 5% CO2 atmosphere. After 24 h the culture medium was replaced by fresh complete DMEM, and the cells were incubated in the presence of 2 μM or absence of the selected compounds (3ea, 5b, 5f, and frentizole 6e) for 24 h. Untreated cells were used as negative controls. Then the medium was removed, and the coverslips were washed three times with PBS, fixed in 4% formaldehyde in PBS for 10 min, permeabilized with 0.5% Triton X-100 (Sigma-Aldrich, St. Louis, MO, USA) in PBS for 90 s at 4 °C, blocked with 10% BSA in PBS for 30 min and washed four times with PBS. Then, the coverslips were incubated for 1 h with anti-α-tubulin mouse monoclonal antibody (Sigma-Aldrich, St. Louis, MO, USA, 1:200 in PBS containing 3% BSA). After four washes with PBS, the coverslips were incubated with fluorescent secondary antibody Alexa Fluor 488 goat anti-mouse IgG (Molecular Probes, Invitrogen, Eugenen, OR, USA, 1:400 in PBS containing 1% BSA) for 1.5 h in darkness. After four washes with PBS, a droplet of ProLong™ Gold Antifade Mountant containing DAPI (ThermoFisher, Waltham, MA, USA) was added for cell nuclei staining. The samples were analyzed via confocal microscopy using a LEICA SP5 microscope DMI-6000V model coupled to a LEICA LAS AF 4.0 software computer.

Solubility (remark) = format: physicochemical
[7] = tested on: Ras-related protein Rab-9A; parameters: method as in SuperPred [40]; conditions: Table S2, CHEMBL1293294; ref SuperPred [40]; cited from earlier work
[8] = parameters: method as in PMID 24858403; conditions: cited from earlier work
[9] = tested on: Survival motor neuron protein; parameters: method as in SuperPred [40]; conditions: Table S2, CHEMBL1293232; ref SuperPred [40]; cited from earlier work
[10] = tested on: U87 MG (human glioblastoma); parameters: method as in PMID 37376146; conditions: cited from earlier work
[11] = 72 h after drug treatment, threshold 10 μM

IC50 [3, 11] [µM]	IC50 [4] [µM]	IC50 [5] [µM]	solubility (in words) (Solubility (remark))	melting point [°C]	IC50 HeLa [3, 11]	Structure (SMILES)	IC50 [1] [µM]	effect on the cell cycle populations (in words) (HeLa cells)	IC50 [2] [µM]	activity against HeLa cells (in words) [3]	effect on the microtubule network (in words) [6]	Min Activity (Assay type Potency) [7] [nm]	effect on the cell cycle populations (in words) (HeLa cells; listed as Frentizole (6e))	effect on the cell cycle populations (in words) (HeLa cells; listed as frentizole)	blood–brain barrier crossing [8]	Min Activity (Assay type Potency) [9] [nm]	in vitro IC50 against U87MG [10]
0.74	> 10	> 10				COc1ccc2nc(N(C)C(=O)c3ccccc3)sc2c1 [Compound 3ea, N-(6-methoxybenzo[d]thiazol-2-yl)-N-methylbenzamide]	> 10	weakest effect on the cell populations	> 10	significant activity	severe microtubule network disruption						
0.49	> 10	> 10				CCNC(=O)Nc1nc2c(Br)cc(C)cc2s1 [Compound 5b, 1-(4-Bromo-6-methylbenzo[d]thiazol-2-yl)-3-ethylurea]	> 10	arrest at G2/M in the 24 to 48 h period	> 10	significant activity	severe microtubule network disruption						
1.24	> 10	> 10	very limited solubility			CCNC(=O)Nc1nc2c(Br)c(C)c(C)cc2s1 [Compound 5d, 1-(4-Bromo-5,6-dimethylbenzo[d]thiazol-2-yl)-3-ethylurea]	> 10		> 10	significant activity							
0.7	> 10	> 10				CCNC(=O)Nc1nc2c(Br)cc(OC)cc2s1 [Compound 5f, 1-(4-Bromo-6-methoxybenzo[d]thiazol-2-yl)-3-ethylurea]	> 10	increase in the subG0/G1 population progressively occurs at the 48 h to 72 h timepoints	> 10	significant activity	severe microtubule network disruption						
> 10	> 10	> 10		179		Cc1cc2nc(N(C)C(=O)Nc3ccccc3)sc2cc1C [Compound 6ca, 1-(5,6-Dimethylbenzo[d]thiazol-2-yl)-1-methyl-3-phenylurea]	> 10		> 10								
1	7.33	> 10			low micromolar range	COc1ccc2nc(NC(=O)Nc3ccccc3)sc2c1 [Compound 6e, 1-(6-Methoxybenzo[d]thiazol-2-yl)-3-phenylurea, reference compound]	6.86		> 10	significant activity	severe microtubule network disruption	707.9	progressive accumulation of cells in the G2/M population	no increase in the subG0/G1 population was observed	able to cross the blood–brain barrier	891.3	
> 10	> 10	> 10		189		COc1ccc2nc(N(C)C(=O)Nc3ccccc3)sc2c1 [Compound 6ea, 1-(6-Methoxybenzo[d]thiazol-2-yl)-1-methyl-3-phenylurea]	> 10		> 10								
> 10	> 10	> 10		283.4 to 285.7		Cc1ccc2nc(NC(=O)NCc3ccccc3)sc2c1 [Compound 7a, 1-Benzyl-3-(6-methylbenzo[d]thiazol-2-yl)urea]	> 10		> 10								
> 10	> 10	> 10		252.8 to 254		CCOC(=O)Nc1nc2ccc(C)cc2s1 [Compound 8a, Ethyl (6-methylbenzo[d]thiazol-2-yl)carbamate]	> 10		0.26								
> 10	> 10	> 10		177 to 178		CCOC(=O)Nc1nc2c(Br)cc(C)cc2s1 [Compound 8b, Ethyl (4-bromo-6-methylbenzo[d]thiazol-2-yl)carbamate]	> 10		> 10								
						Cn1nnc2c(C(N)=O)ncn2c1=O [temozolomide]											millimolar range

Structure (SMILES)	IC50 [3, 11] [µM]	IC50 [4] [µM]	IC50 [5] [µM]	solubility (in words) (Solubility (remark))	melting point [°C]	IC50 HeLa [3, 11]	IC50 [1] [µM]	effect on the cell cycle populations (in words) (HeLa cells)	IC50 [2] [µM]	activity against HeLa cells (in words) [3]	effect on the microtubule network (in words) [6]	Min Activity (Assay type Potency) [7] [nm]	effect on the cell cycle populations (in words) (HeLa cells; listed as Frentizole (6e))	effect on the cell cycle populations (in words) (HeLa cells; listed as frentizole)	blood–brain barrier crossing [8]	Min Activity (Assay type Potency) [9] [nm]	in vitro IC50 against U87MG [10]
Cc1ccc2nc(NC(=O)Oc3ccccc3)sc2c1 [Compound 9a, Phenyl (6-methylbenzo[d]thiazol-2-yl)carbamate]	> 10	> 10	> 10		251 to 253		> 10		> 10								
